Numbered stars: 1 amine (or outer) side, 2 acyl side, 3 side chain; on linkers, the order of the positions; unused ones are H or OH. Square brackets hold non-standard residues; d marks the D form. Side chains are listed from the residue outwards. Peptide text beside a SMILES is read from it. * marks the point of attachment. C18 diacid = O=C(O)CCCCCCCCCCCCCCCCC(=O)*; γGlu = O=C(O)[C@H](CCC(=O)[*:2])N[*:1]; εLys = N[C@@H](CCCCN[*:1])C(=O)[*:2]; AEEA = NCCOCCOCC(=O)O; Aib = CC(C)(N)C(=O)O
Tests used:
human GLP-1 receptor [1] = target: T1, human GLP-1 receptor (Homo sapiens, UniProt P43220); experiment: GLP-1 receptor binding: competitive binding assay (125I-GLP-1, SPA) on isolated membranes at low and high HSA; details: displacement of 125I-GLP-1
T1 construct: expressed in transfected cells; host or cells: BHK cells (parent line BHKTS13), clone FCW467-12A; membrane preparation
Procedure: The purpose of this example is to test the receptor binding of the GLP-1 derivatives in vitro. The receptor binding is a measure of affinity of a derivative for the human GLP-1 receptor.
In this type of assay a labelled ligand (in this case ^125I-GLP-1) is bound to the receptor. Each derivative is added in a series of concentrations to isolated membranes containing the human GLP-1 receptor and displacement of the labelled ligand is monitored. The receptor binding is reported as the concentration at which half of the labelled ligand is displaced from the receptor, the IC50 value.
The following chemicals were used in the assay: Human serum albumin (HSA) (Sigma A1653), DMEM w/o phenol red (Gibco 11880-028), Pen/strep (Invitrogen 15140-122), G418 (Invitrogen 10131-027), 1 M Hepes (Gibco 15630), EDTA (Invitrogen 15575-038), PBS (Invitrogen 14190-094), fetal calf serum (Invitrogen 16140-071), EGTA, MgCl2 (Merck 1.05832.1000), Tween 20 (Amresco 0850C335), SPA particles (wheat germ agglutinin (WGA) SPA beads, Perkin Elmer RPNQ0001), [^125I]-GLP-1]-(7-36)NH2 (produced in-house), OptiPlate™-96 (Packard 6005290).
Buffer 1 consisted of 20 mM Na-HEPES plus 10 mM EDTA and pH was adjusted to 7.4. Buffer 2 consisted of 20 mM Na-HEPES plus 0.1 mM EDTA and pH was adjusted to 7.4. Assay buffer consisted of 50 mM HEPES supplemented with 5 mM EGTA, 5 mM MgCl2, 0.005% Tween 20 and pH was adjusted to 7.4. An 8% albumin stock consisted of HSA dissolved at 8% (w/v) in assay buffer. An 0.02% albumin stock consisted of HSA dissolved at 0.02% (w/v) in assay buffer.
The cells express the human GLP-1 receptor.
The cells were grown at 5% CO2 in DMEM, 10% fetal calf serum, 1% Pen/Strep (Penicillin/Streptomycin) and 1.0 mg/ml of the selection marker G418.
To make a membrane preparation the cells were grown to approximately 80% confluence. The cells were washed twice in phosphate-buffered saline and harvested. The cells were pelleted using a brief centrifugation and the cell pellet was kept on ice. The cell pellet was homogenised with ULTRA-THURRAX™ dispersing instrument for 20-30 seconds in a suitable amount of buffer 1 (e.g., 10 ml). The homogenate was centrifuged for 15 minutes. The pellet was re-suspended (homogenised) in 10 ml buffer 2 and centrifuged. This step was repeated once more. The resulting pellet was re-suspended in buffer 2 and the protein concentration was determined. The membranes were aliquoted and stored at minus 80° C.
For the receptor binding assay in the presence of low HSA (0.005%) 50 μl of the assay buffer was added to each well of an assay plate. Assay continued with step 3.
For the receptor binding assay in the presence of high HSA (2%) 50 μl of the 8% albumin stock was added to each well of an assay plate. Assay continued with step 3.
Cell membrane aliquots were thawed and diluted to their working concentration. Fifty μl were added to each well in the assay plate.
WGA SPA beads were suspended in assay buffer at 20 mg/ml. The suspension was diluted to 10 mg/ml in assay buffer just prior to addition to the assay plate. Fifty μl were added to each well in the assay plate.
The incubation was started by adding 25 μl of 480 pM solution of [^125I]-GLP-1]-(7-36)NH2 to each well of the assay plate. A 25 μl aliquot was reserved for measuring total counts/well.
The assay plate was incubated for 2 h at 30° C.
The assay plate was centrifuged for 10 min.
The assay plate was read in a Packard TopCount NXT instrument.
The data from the TopCount instrument were transferred to GraphPad Prism software. The software averaged the values for the replicates and performed a non-linear regression. IC50 values were calculated by the software and reported in nM.

in vivo = details: male, Göttingen, minipig, iv
human GLP-1 receptor [2] = target: T1, human GLP-1 receptor; experiment: In vitro potency: CRE luciferase reporter gene assay in BHK cells expressing the human GLP-1 receptor; type: cell-based; details: whole cell reporter gene assay, BHK clone FCW467-12A/KZ10-1; averages of at least two replicates
Procedure: The purpose of this example is to test the activity, or potency, of the GLP-1 derivatives in vitro. The in vitro potency is the measure of human GLP-1 receptor activation in a whole cell assay.
In vitro potency was determined by measuring the response of the human GLP-1 receptor in a reporter gene assay. The assay was performed in a stably transfected BHK cell line that expresses the human GLP-1 receptor and contains the DNA for the cAMP response element (CRE) coupled to a promoter and the gene for firefly luciferase (CRE luciferase). When the human GLP-1 receptor is activated it results in the production of cAMP, which in turn results in the luciferase protein being expressed. When assay incubation is completed the luciferase substrate (luciferin) is added and the enzyme converts luciferin to oxyluciferin to produce bioluminescence. The luminescence is measured as the readout for the assay.
The cells were cultured at 5% CO2 in Cell Culture Medium. They were aliquoted and stored in liquid nitrogen. Before each assay an aliquot is taken up and washed twice in PBS before being suspended at the desired concentration in the assay specific buffer. For 96-well plates the suspension was made to give a final concentration of 5×10^3 cells/well.
The following chemicals were used in the assay: Pluronic F-68 (10%) (Gibco 2404), human serum albumin (HSA) (Sigma A9511), ovalbumin (Sigma A5503), DMEM w/o phenol red (Gibco 11880-028), 1 M Hepes (Gibco 15630), Glutamax 100× (Gibco 35050) and steadylite plus (PerkinElmer 6016757).
Cell Culture Medium consisted of DMEM medium with 10% FBS (Fetal Bovine Serum; Invitrogen 16140-071), 1 mg/ml G418 (Invitrogen 15140-122), 240 nM MTX (methotrexate; Sigma M9929) and 1% pen/strep (penicillin/streptomycin; Invitrogen 15140-122).
Assay Medium consisted of DMEM w/o phenol red, 10 mM Hepes and 1× Glutamax. The Assay Buffer consisted of 2% ovalbumin and 0.2% Pluronic F-68 in Assay Medium.
1) Cell stocks were thawed in a 37° C. water bath.
2) Cells were washed three times in PBS.
3) The cells were counted and adjusted to 5×10^3 cells/50 μl (1×10^5 cells/ml) in Assay Medium. A 50 μl aliquot of cells was transferred to each well in the assay plate.
4) Stocks of the test compounds and reference compounds were diluted to a concentration of 0.2 pM in Assay Buffer. […] Compounds were tested at the following final concentrations: 1×10^−7 M, 1×10^−8 M; 1×10^−9 M, 1×10^−10 M, 1×10^−11 M, 1×10^−12 M, 1×10^−13 M, and 1×10^−14 M. 6) The assay plate was incubated for 3 h in a 5% CO2 incubator at 37° C. 7) The assay plate was removed from the incubator and allowed to stand at room temperature for 15 min. 8) A 100 μl aliquot of steadylite plus reagent was added to each well of the assay plate (reagent was light sensitive). 9) Each assay plate was covered with aluminum foil to protect it from light and shaken for 30 min at room temperature. 10) Each assay plate was read in a Packard TopCount NXT instrument. Calculations and Results
The data from the TopCount instrument were transferred to GraphPad Prism software. The software performs a non-linear regression (log(agonist) vs response).
A minimum of two replicates was measured for each sample. The reported values are averages of the replicates.

T1 sequence (P43220 24-463): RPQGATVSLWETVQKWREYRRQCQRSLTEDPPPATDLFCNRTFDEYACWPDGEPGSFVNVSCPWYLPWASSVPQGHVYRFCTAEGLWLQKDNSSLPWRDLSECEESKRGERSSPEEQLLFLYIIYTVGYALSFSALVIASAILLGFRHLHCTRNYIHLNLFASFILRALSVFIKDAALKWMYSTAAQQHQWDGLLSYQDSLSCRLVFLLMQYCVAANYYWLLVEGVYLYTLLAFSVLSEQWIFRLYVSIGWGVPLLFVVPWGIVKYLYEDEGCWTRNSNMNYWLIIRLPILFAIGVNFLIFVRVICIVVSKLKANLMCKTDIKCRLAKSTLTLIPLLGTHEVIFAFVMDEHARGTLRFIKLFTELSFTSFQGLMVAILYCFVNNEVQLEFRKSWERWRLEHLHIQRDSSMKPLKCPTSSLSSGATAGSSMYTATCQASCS

| Low HSA IC50 (human GLP-1 receptor [1]; Low HSA IC50, low serum albumin (max. 0.001% final assay concentration)) [nM] | IC50 (human GLP-1 receptor [1]; high serum albumin (2.0% HSA final assay concentration)) [nM] | half-life (in vivo) [h] | EC50 (human GLP-1 receptor [2]) [nM] | Compound |
| --- | --- | --- | --- | --- |
| 0.4 | > 1000 | 103 |  | CC[C@H](C)[C@H](NC(=O)[C@H](Cc1ccccc1)NC(=O)[C@H](CCCCNC(=O)[C@@H](N)CCCCNC(=O)COCCOCCNC(=O)COCCOCCNC(=O)CC[C@H](NC(=O)CCCCCCCCCCCCCCCCC(=O)O)C(=O)O)NC(=O)[C@H](CCCNC(=N)N)NC(=O)[C@H](C)NC(=O)[C@H](C)NC(=O)[C@H](CCC(N)=O)NC(=O)[C@H](CCC(=O)O)NC(=O)[C@H](CCC(=O)O)NC(=O)[C@H](CC(C)C)NC(=O)[C@H](Cc1ccc(O)cc1)NC(=O)[C@H](CCCCNC(=O)[C@@H](N)CCCCNC(=O)COCCOCCNC(=O)COCCOCCNC(=O)CC[C@H](NC(=O)CCCCCCCCCCCCCCCCC(=O)O)C(=O)O)NC(=O)[C@H](CO)NC(=O)[C@@H](NC(=O)[C@H](CC(=O)O)NC(=O)[C@H](CO)NC(=O)[C@@H](NC(=O)[C@H](Cc1ccccc1)NC(=O)[C@@H](NC(=O)CNC(=O)[C@H](CCC(=O)O)NC(=O)C(C)(C)NC(=O)[C@@H](N)Cc1c[nH]cn1)[C@@H](C)O)[C@@H](C)O)C(C)C)C(=O)N[C@@H](C)C(=O)N[C@@H](Cc1c[nH]c2ccccc12)C(=O)N[C@@H](CC(C)C)C(=O)N[C@H](C(=O)N[C@@H](CCCNC(=N)N)C(=O)NCC(=O)N[C@@H](CCCNC(=N)N)C(=O)N[C@@H](CCCCNC(=O)[C@@H](N)CCCCNC(=O)COCCOCCNC(=O)COCCOCCNC(=O)CC[C@H](NC(=O)CCCCCCCCCCCCCCCCC(=O)O)C(=O)O)C(=O)O)C(C)C [Example 6] (H-H[Aib]EGTFTSDVSK([εLys-AEEA-AEEA-γGlu-C18 diacid])YLEEQAARK([εLys-AEEA-AEEA-γGlu-C18 diacid])FIAWLVRGRK([εLys-AEEA-AEEA-γGlu-C18 diacid])-OH; N-terminus and C-terminus assumed) |
|  |  | 158 | 0.026 | CC[C@H](C)[C@H](NC(=O)[C@H](Cc1ccccc1)NC(=O)[C@H](CCCCNC(=O)COCCOCCNC(=O)COCCOCCNC(=O)CC[C@H](NC(=O)CCCCCCCCCCCCCCCCC(=O)O)C(=O)O)NC(=O)[C@H](CCCNC(=N)N)NC(=O)[C@H](C)NC(=O)[C@H](C)NC(=O)[C@H](CCC(N)=O)NC(=O)[C@H](CCC(=O)O)NC(=O)[C@H](CCC(=O)O)NC(=O)[C@H](CC(C)C)NC(=O)[C@H](Cc1ccc(O)cc1)NC(=O)[C@H](CO)NC(=O)[C@H](CO)NC(=O)[C@@H](NC(=O)[C@H](CC(=O)O)NC(=O)[C@H](CO)NC(=O)[C@@H](NC(=O)[C@H](Cc1ccccc1)NC(=O)[C@@H](NC(=O)CNC(=O)[C@H](CCC(=O)O)NC(=O)C(C)(C)NC(=O)[C@@H](N)Cc1c[nH]cn1)[C@@H](C)O)[C@@H](C)O)C(C)C)C(=O)N[C@@H](CCCCNC(=O)COCCOCCNC(=O)COCCOCCNC(=O)CC[C@H](NC(=O)CCCCCCCCCCCCCCCCC(=O)O)C(=O)O)C(=O)N[C@@H](Cc1c[nH]c2ccccc12)C(=O)N[C@@H](CC(C)C)C(=O)N[C@H](C(=O)N[C@@H](CCCNC(=N)N)C(=O)NCC(=O)N[C@@H](CCCNC(=N)N)C(=O)N[C@@H](CCCCNC(=O)COCCOCCNC(=O)COCCOCCNC(=O)CC[C@H](NC(=O)CCCCCCCCCCCCCCCCC(=O)O)C(=O)O)C(=O)O)C(C)C [Example 10] (H-H[Aib]EGTFTSDVSSYLEEQAARK([AEEA-AEEA-γGlu-C18 diacid])FIK([AEEA-AEEA-γGlu-C18 diacid])WLVRGRK([AEEA-AEEA-γGlu-C18 diacid])-OH; N-terminus and C-terminus assumed) |
|  |  |  | 0.026 | CC[C@H](C)[C@H](NC(=O)[C@H](Cc1ccccc1)NC(=O)[C@H](CCC(=O)O)NC(=O)[C@H](CCCNC(=N)N)NC(=O)[C@H](C)NC(=O)[C@H](C)NC(=O)[C@H](CCC(N)=O)NC(=O)[C@H](CCCCNC(=O)COCCOCCNC(=O)COCCOCCNC(=O)[C@@H](N)CCCCNC(=O)CCCCCCCCCCCCCCCS(=O)(=O)O)NC(=O)[C@H](CCC(=O)O)NC(=O)[C@H](CC(C)C)NC(=O)[C@H](Cc1ccc(O)cc1)NC(=O)[C@H](CCCCNC(=O)COCCOCCNC(=O)COCCOCCNC(=O)[C@@H](N)CCCCNC(=O)CCCCCCCCCCCCCCCS(=O)(=O)O)NC(=O)[C@H](CO)NC(=O)[C@@H](NC(=O)[C@H](CC(=O)O)NC(=O)[C@H](CO)NC(=O)[C@@H](NC(=O)[C@H](Cc1ccccc1)NC(=O)[C@@H](NC(=O)CNC(=O)[C@H](CCC(=O)O)NC(=O)C(C)(C)NC(=O)[C@@H](N)Cc1c[nH]cn1)[C@@H](C)O)[C@@H](C)O)C(C)C)C(=O)N[C@@H](CCCCNC(=O)COCCOCCNC(=O)COCCOCCNC(=O)[C@@H](N)CCCCNC(=O)CCCCCCCCCCCCCCCS(=O)(=O)O)C(=O)N[C@@H](Cc1c[nH]c2ccccc12)C(=O)N[C@@H](CC(C)C)C(=O)N[C@H](C(=O)N[C@@H](CCCNC(=N)N)C(=O)NCC(=O)N[C@@H](CCCNC(=N)N)C(=O)NCC(=O)O)C(C)C [Example 13] |
|  |  | 143 | 0.018 | CC[C@H](C)[C@H](NC(=O)[C@H](Cc1ccccc1)NC(=O)[C@H](CCC(=O)O)NC(=O)[C@H](CCCNC(=N)N)NC(=O)[C@H](C)NC(=O)[C@H](C)NC(=O)[C@H](CCC(N)=O)NC(=O)[C@H](CCCCNC(=O)COCCOCCNC(=O)COCCOCCNC(=O)COCCOCCNC(=O)COCCOCCNC(=O)COCCOCCNC(=O)[C@@H](N)CCCCNC(=O)[C@@H](N)CCCCNC(=O)[C@@H](N)CCCCNC(=O)CCCCCCCCCCCCCCCCC(=O)O)NC(=O)[C@H](CCC(=O)O)NC(=O)[C@H](CC(C)C)NC(=O)[C@H](Cc1ccc(O)cc1)NC(=O)[C@H](CCCCNC(=O)COCCOCCNC(=O)COCCOCCNC(=O)COCCOCCNC(=O)COCCOCCNC(=O)COCCOCCNC(=O)[C@@H](N)CCCCNC(=O)[C@@H](N)CCCCNC(=O)[C@@H](N)CCCCNC(=O)CCCCCCCCCCCCCCCCC(=O)O)NC(=O)[C@H](CO)NC(=O)[C@@H](NC(=O)[C@H](CC(=O)O)NC(=O)[C@H](CO)NC(=O)[C@@H](NC(=O)[C@H](Cc1ccccc1)NC(=O)[C@@H](NC(=O)CNC(=O)[C@H](CCC(=O)O)NC(=O)C(C)(C)NC(=O)[C@@H](N)Cc1c[nH]cn1)[C@@H](C)O)[C@@H](C)O)C(C)C)C(=O)N[C@@H](CCCCNC(=O)COCCOCCNC(=O)COCCOCCNC(=O)COCCOCCNC(=O)COCCOCCNC(=O)COCCOCCNC(=O)[C@@H](N)CCCCNC(=O)[C@@H](N)CCCCNC(=O)[C@@H](N)CCCCNC(=O)CCCCCCCCCCCCCCCCC(=O)O)C(=O)N[C@@H](Cc1c[nH]c2ccccc12)C(=O)N[C@@H](CC(C)C)C(=O)N[C@H](C(=O)N[C@@H](CCCNC(=N)N)C(=O)NCC(=O)N[C@@H](CCCNC(=N)N)C(=O)NCC(=O)O)C(C)C [Example 17] |

— patent US10266577B2, “GLP-1 derivatives, and uses thereof” (Novo Nordisk A/S, priority 2013, dated 2019)
